According to PMC10354055, “An optimized Nurr1 agonist provides disease-modifying effects in Parkinson’s disease models” (Nature Communications, 2023):
Where “and” joins values, the source holds several entries; their conditions need not be identical. Equal entries are not always repeated.

What was measured:
Type in all cases: in vivo, mouse
MPTP-induced male mice [1] = experiment: AIMs scoring (dyskinesia), MPTP-induced PD model mice; settings: for abnormal involuntary movements (AIMs) (in words): CQ 40, 4A7C-301 5, L-DOPA 50 mg/kg/day, i.p.; for AIMs score (20-140 min): Figure 4f, MPTP-induced mice, individual animal values
Method: (§1) Male C57BL/6 J mice (8–10 weeks, 25–30 g; Jackson Laboratories) were randomly assigned to 5 groups including vehicle (VEH), MPTP, MPTP + L-DOPA, MPTP + CQ and MPTP + 4A7C-301 (n ≥ 7 for each group). MPTP (Sigma-Aldrich) was intraperitoneally (i.p.) injected (30 mg/kg) for 5 days (Day 1-5). Different dosages of CQ (20, 40, and 80 mg/kg) and 4A7C-301 (1, 5, 20 mg/kg) were first tested to determine the effective dose window, then 40 and 5 mg/kg doses were finally selected for CQ and 4A7C-301 respectively to show the most prominent effects. CQ or 4A7C-301 was dissolved in PBS and administrated (i.p.) for 16 days starting with MPTP injection (Day 1-16). To test dyskinetic involuntary behavior, an L-DOPA injected group was included, which received 50 mg/kg of L-DOPA and 15 mg/kg of benserazide (Sigma-Aldrich) (i.p.) for 16 days (Day 1–16). All compounds were administered 6 h post-MPTP injection to avoid any effect of compounds on the MPTP metabolism in the brain. Motor and non-motor related behavior tests were performed on the following days as described in Fig. 4a in an assessor- and observer-blinded fashion. Pre-training and baseline setup for motor-related behaviors were performed 3 days prior to the injections. Mice were sacrificed and subjected to immunohistochemistry. Mice were housed at the Animal Care Facilities of McLean Hospital under a 12-h light/12-h dark cycle, ambient temperature and humidity. Animals were handled in accordance with McLean Hospital’s Institutional Animal Care and Use Committee (Protocol #: 2015N000002) and followed National Institutes of Health guidelines.
Abnormal involuntary movements (AIMs) were scored using the developed mouse dyskinesia rating scale as described in Sebastianutto et al.. Briefly, 4 mice were recorded simultaneously with a Swann HD Security System (B&H Photo-Video Inc.) for 2 min per session, every 20 min during the 140 min following drug injections (i.e., total 7 sessions), on every other or third day (Day 2, 4, 7, 9, 11, 13, and 16). Dyskinetic movements were scored for 3 subtypes of basic AIMs including axial, forelimb and orolingual AIMs, based on the severity scale from 0 to 4 which measures the duration of AIMs (0 = no dyskinesia; 1 = display dyskinesia for <50% of the observation time; 2 = display dyskinesia for >50% of the observation time; 3 = display dyskinesia for the entire observation period but ceased upon external stimuli; 4 = display continuous and unceasing dyskinesia). To get a better and more sensitive validation of mice dyskinesia, we included an amplitude AIMs score, which rates the degree of deviation of body part or muscle position from its resting position on a 0-4 scale as previously described. Finally, global AIMs score was calculated by multiplying basic AIMs and amplitude AIMs scores for each subtype on each session. Data points were plotted as the grand total of individual AIMs score on each testing day.

MPTP-induced male mice [2] = experiment: Dopamine ELISA in SN and STR, MPTP-induced mice; settings: for DA: individual animals
Method: as §1, with “MPTP” for “Male C57BL/6 J mice (8–10 weeks, 25–30 g; Jackson Laboratories) were randomly assigned to 5 groups including vehicle (VEH), MPTP, MPTP + L-DOPA, MPTP + CQ and MPTP + 4A7C-301 (n ≥ 7 for each group). MPTP”, “Different dosages of CQ (20, 40, and 80 mg/kg) and 4A7C-301 (1, 5, 20 mg/kg) were first tested to determine the effective dose window, then 40 and 5 mg/kg doses were finally selected for CQ and 4A7C-301 respectively to show the most prominent effects. CQ or 4A7C-301 was dissolved in PBS and administrated (i.p.) for 16 days starting with MPTP injection (Day 1-16).” left out
For MPTP-induced mice, the left hemisphere of each group (n = 5) was used for analysis and compared to the vehicle-treated group (VEH). For AAV-αSyn-injected mouse model, the viral vector injected side (left hemisphere; ipsilateral) of each group (n = 3) was compared to the non-injected side (right hemisphere; contralateral).

[3] = test system: AAV-αSyn-induced male mice; experiment: Cylinder test, AAV-αSyn-induced PD model mice; settings: αSynWT and αSynA53T mice; CQ 40, 4A7C-301 5 mg/kg/day i.p.
From the text: Adeno-associated viruses (AAVs) expressing GFP only or αSyn (wild-type or A53T) were kindly provided by Dr. Yoon Seong Kim from the University of Central Florida. Recombinant AAV vectors were produced using modified pAAV-IRES-hrGFP (Agilent) to express wild-type and mutant human αSyn under control of the CMV promoter. Viral particles (AAV2) were produced at the University of Iowa Viral Vector Core according to standard operating procedures (https://medicine.uiowa.edu/vectorcore/). […] AAV vectors were delivered into the substantia nigra unilaterally by stereotaxic surgery.
Mice were placed in a transparent plastic cylinder (15.5 cm high, 12.7 cm diameter) with a mirror behind it. Spontaneous activity was recorded and measured as counting the number of rearing events for 3 min session. A rear was considered only when the mouse touched the wall of the cylinder with its forelimb paws while standing on its hindlimbs (vertical movement) to count meaningful physiological movements.

Compound	abnormal involuntary movements (AIMs) (in words) (MPTP-induced male mice [1])	AIMs score (20-140 min) (MPTP-induced male mice [1]; day 2)	AIMs score (20-140 min) (MPTP-induced male mice [1]; day 4)	AIMs score (20-140 min) (MPTP-induced male mice [1]; day 7)	AIMs score (20-140 min) (MPTP-induced male mice [1]; day 9)	AIMs score (20-140 min) (MPTP-induced male mice [1]; day 11)	AIMs score (20-140 min) (MPTP-induced male mice [1]; day 13)	AIMs score (20-140 min) (MPTP-induced male mice [1]; day 16)	DA levels in the SN (in words) (MPTP-induced male mice [2])	DA levels in the STR (in words) (MPTP-induced male mice [2])	DA (MPTP-induced male mice [2]; Supplementary Figure S10b)	DA (MPTP-induced male mice [2]; Supplementary Figure S10c)	motor deficits, cylinder test (rearing) (in words) [3]
CCN1CCN(c2cc(N3CCN(CC)CC3)nc(NCCNc3ccnc4cc(Cl)ccc34)n2)CC1 [4A7C-301, N^1-(4,6-bis(4-ethylpiperazin-1-yl)pyrimidin-2-yl)-N^2-(7-chloroquinolin-4-yl)ethane-1,2-diamine]	did not induce any detectable AIMs	0	0	0	0	0	0	0	significantly restored	significantly restored	62.619 pg/mL and 53.876 pg/mL and 49.863 pg/mL and 62.002 pg/mL and 54.392 pg/mL	384.546 pg/mL and 562.262 pg/mL and 361.203 pg/mL and 377.923 pg/mL and 404.591 pg/mL	improved motor deficits
CCN(CC)CCCC(C)Nc1ccnc2cc(Cl)ccc12 (centres unmarked) [CQ, chloroquine]	did not induce any detectable AIMs	0	0	0	0	0	0	0	did so only in the SN	only in the SN	49.362 pg/mL and 39.048 pg/mL and 57.173 pg/mL and 55.478 pg/mL and 57.153 pg/mL	418.063 pg/mL and 471.117 pg/mL and 318.027 pg/mL and 389.411 pg/mL and 268.088 pg/mL	partial recovery
